According to patent US20150141381A1, “TETRACYCLINE COMPOUNDS HAVING TARGET THERAPEUTIC ACTIVITIES” (Paratek Pharmaceuticals, Inc., priority 2001, published 2015):
Where two headings read alike, the source gives them in different places.

Legend:
E. coli mL308 225 = assay: In Vitro Anti-Bacterial Activity Assay (MIC), gram negative; assay type: cell-based; details: Escherichia coli, ML308225, 18 h
S. aureus RN450 = assay: In Vitro Anti-Bacterial Activity Assay (MIC), gram positive; assay type: cell-based; details: Staphylococcus aureus, RN450, 18 h
[1] = gram negative bacteria, read-out: Antibiotic Activity Gram − (MIC)
[2] = gram positive bacteria, read-out: Antibiotic Activity Gram + (MIC)
[3] = MIC class, Table 3, read-out: Antibiotic Activity Gram −
[4] = MIC class, Table 3, read-out: Antibiotic Activity Gram +

Row | SMILES | MIC (E. coli mL308 225; [1]) [µg/mL] | MIC (S. aureus RN450; [2]) [µg/mL] | other results
1 | CN(C)c1cc(CN)c(O)c2c1C[C@H]1C[C@H]3[C@H](N(C)C)C(O)=C(C(N)=O)C(=O)[C@@]3(O)C(O)=C1C2=O | > 4 | < 4 | 
2 | COCc1cccc(-c2ccc(O)c3c2C[C@H]2C[C@H]4[C@H](N(C)C)C(O)=C(C(N)=O)C(=O)[C@@]4(O)C(O)=C2C3=O)c1 | < 4 | < 4 | 
3 | Cc1cnc(N)n1Cc1cc(N(C)C)c2c(c1O)C(=O)C1=C(O)[C@]3(O)C(=O)C(C(N)=O)=C(O)[C@@H](N(C)C)[C@@H]3C[C@@H]1C2 [drawing 3711] | > 4 | < 4 | 
4 | Cc1noc(C)c1-c1ccc(O)c2c1C[C@H]1C[C@H]3[C@H](N(C)C)C(O)=C(C(N)=O)C(=O)[C@@]3(O)C(O)=C1C2=O | < 4 | < 4 | 
5 | CN(C)[C@@H]1C(O)=C(C(N)=O)C(=O)[C@@]2(O)C(O)=C3C(=O)c4c(O)ccc(Cl)c4[C@](C)(O)[C@H]3C[C@@H]12 | > 4 | < 4 | 
6 | CNC(=O)C1CCN(Cc2cc(N(C)C)c3c(c2O)C(=O)C2=C(O)[C@]4(O)C(=O)C(C(N)=O)=C(O)[C@@H](N(C)C)[C@@H]4C[C@@H]2C3)CC1 | < 4 | < 4 | 
7 | CC(=O)/C=C/c1ccc(O)c2c1C[C@H]1C[C@H]3[C@H](N(C)C)C(O)=C(C(N)=O)C(=O)[C@@]3(O)C(O)=C1C2=O | > 4 | < 4 | 
8 | CN(C)[C@@H]1C(O)=C(C(N)=O)C(=O)[C@@]2(O)C(O)=C3C(=O)c4c(O)ccc(C=CC(N)=O)c4C[C@H]3C[C@@H]12 [BO] |  |  | MIC (E. coli mL308 225; [3]): > 4 µg/mL; MIC (S. aureus RN450; [4]): > 4 µg/mL
9 | CN(C)C1C(O)=C(C(N)=O)C(=O)[C@@]2(O)C(O)=C3C(=O)c4c(O)ccc(-c5ccc(NC(=O)Nc6ccc(OC(F)(F)F)cc6)cc5)c4C[C@H]3C[C@@H]12 (stereo partly drawn) [GV] |  |  | MIC (E. coli mL308 225; [3]): > 4 µg/mL; MIC (S. aureus RN450; [4]): > 4 µg/mL
10 | CC(C)CNCc1ccc(O)c2c1C[C@H]1C[C@H]3C(N(C)C)C(O)=C(C(N)=O)C(=O)[C@@]3(O)C(O)=C1C2=O (stereo partly drawn) [NF] |  |  | MIC (E. coli mL308 225; [3]): < 4 µg/mL; MIC (S. aureus RN450; [4]): < 4 µg/mL
11 | CN(C)c1cc(CNCC2CCNCC2)c(O)c2c1C[C@H]1C[C@H]3[C@H](N(C)C)C(O)=C(C(N)=O)C(=O)[C@@]3(O)C(O)=C1C2=O | > 4 | > 4 | 
12 | CN(C)c1cc(CN(Cc2ccn[nH]2)Cc2ccn[nH]2)c(O)c2c1C[C@H]1C[C@H]3[C@H](N(C)C)C(O)=C(C(N)=O)C(=O)[C@@]3(O)C(O)=C1C2=O | > 4 | > 4 | 
13 | COCC(=O)Nc1ccc(-c2ccc(O)c3c2C[C@H]2C[C@H]4[C@H](N(C)C)C(O)=C(C(N)=O)C(=O)[C@@]4(O)C(O)=C2C3=O)cc1 | < 4 | < 4 | 
14 | CN(C)CC#Cc1cc(C(C)(C)C)c(O)c2c1C[C@H]1C[C@H]3[C@H](N(C)C)C(O)=C(C(N)=O)C(=O)[C@@]3(O)C(O)=C1C2=O [GD] |  |  | MIC (E. coli mL308 225; [3]): > 4 µg/mL; MIC (S. aureus RN450; [4]): < 4 µg/mL
15 | CN(C)[C@@H]1C(O)=C(C(N)=O)C(=O)[C@@]2(O)C(O)=C3C(=O)c4c(O)ccc(CN5CCCCC5)c4C[C@H]3C[C@@H]12 [KJ] |  |  | MIC (E. coli mL308 225; [3]): < 4 µg/mL; MIC (S. aureus RN450; [4]): < 4 µg/mL
16 | CC(=O)Cc1cc(I)c2c(c1O)C(=O)C1=C(O)[C@]3(O)C(=O)C(C(N)=O)=C(O)[C@@H](N(C)C)[C@@H]3C[C@@H]1C2 | > 4 | > 4 | 
17 | CN(C)[C@@H]1C(O)=C(C(N)=O)C(=O)[C@@]2(O)C(O)=C3C(=O)c4c(O)c(N)cc(-c5ccccn5)c4C[C@H]3C[C@@H]12 | > 4 | < 4 | 
18 | CN(C)[C@@H]1C(O)=C(C(N)=O)C(=O)[C@@]2(O)C(O)=C3C(=O)c4c(O)ccc(CNC(=O)c5cnoc5)c4C[C@H]3C[C@@H]12 | > 4 | < 4 | 
19 | CN(C)[C@@H]1C(O)=C(C(N)=O)C(=O)[C@@]2(O)C(O)=C3C(=O)c4c(O)ccc(-c5cc6ccccc6o5)c4C[C@H]3C[C@@H]12 [drawing 3387] | > 4 | < 4 | 
20 | CN(C)c1ccc(O)c2c1C[C@H]1C[C@H]3[C@H](N(C)C)C(O)=C(C#N)C(=O)[C@@]3(O)C(O)=C1C2=O | > 4 | > 4 | 
21 | CN(C)[C@@H]1C(O)=C(C(N)=O)C(=O)[C@@]2(O)C(O)=C3C(=O)c4c(O)ccc(-n5cccn5)c4C[C@H]3C[C@@H]12 | < 4 | < 4 | 
22 | CN(C)[C@@H]1C(OCc2ccccc2)=C(C(N)=O)C(=O)[C@@]2(O)C(O)=C3C(=O)c4c(cccc4OCc4ccccc4)C[C@H]3C[C@@H]12 [OJ] |  |  | MIC (E. coli mL308 225; [3]): > 4 µg/mL; MIC (S. aureus RN450; [4]): > 4 µg/mL
23 | CN(C)c1cc(CCc2ccc(F)cc2)c(O)c2c1C[C@H]1C[C@H]3[C@H](N(C)C)C(O)=C(C(N)=O)C(=O)[C@@]3(O)C(O)=C1C2=O | < 4 | < 4 | 

Row | SMILES | MIC (E. coli mL308 225; [1]) [µg/mL] | MIC (S. aureus RN450; [2]) [µg/mL] | other results
24 | CN(C)[C@@H]1C(O)=C(C(N)=O)C(=O)[C@@]2(O)C(O)=C3C(=O)c4c(O)ccc(-c5ccc(NC(=O)NCCCCl)cc5)c4C[C@H]3C[C@@H]12 | > 4 | < 4 | 
25 | Cc1cc(C(C)(C)C)c(O)c2c1C[C@H]1C[C@H]3[C@H](N(C)C)C(O)=C(C(N)=O)C(=O)[C@@]3(O)C(O)=C1C2=O | > 4 | < 4 | 
26 | CC(C)Cc1cc(N(C)C)c2c(c1O)C(=O)C1=C(O)[C@]3(O)C(=O)C(C(N)=O)=C(O)[C@@H](N(C)C)[C@@H]3C[C@@H]1C2 | < 4 | < 4 | 
27 | C[C@H]1c2ccc(CN3CCCCC3)c(O)c2C(=O)C2=C(O)[C@]3(O)C(=O)C(C(N)=O)=C(O)[C@@H](N(C)C)[C@@H]3[C@@H](O)[C@@H]21 | < 4 | < 4 | 
28 | CCCC(C)c1ccc(OC)c(-c2ccc(O)c3c2C[C@H]2C[C@H]4[C@H](N(C)C)C(O)=C(C(N)=O)C(=O)[C@@]4(O)C(O)=C2C3=O)c1 (stereo partly drawn) | > 4 | < 4 | 
29 | CN(C)[C@@H]1C(O)=C(C(N)=O)C(=O)[C@@]2(O)C(O)=C3C(=O)c4c(ccc(NC(=O)Nc5cccc6ccccc56)c4O)C[C@H]3C[C@@H]12 [AU] |  |  | MIC (E. coli mL308 225; [3]): > 4 µg/mL; MIC (S. aureus RN450; [4]): < 4 µg/mL
30 | COc1ccc(CNCc2ccc(-c3ccc(O)c4c3C[C@H]3C[C@H]5[C@H](N(C)C)C(O)=C(C(N)=O)C(=O)[C@@]5(O)C(O)=C3C4=O)cc2)cc1 [GX] |  |  | MIC (E. coli mL308 225; [3]): < 4 µg/mL; MIC (S. aureus RN450; [4]): < 4 µg/mL
31 | CCc1cc(CNC(=O)CN(C)C)c(O)c2c1C[C@H]1C[C@H]3[C@@H](N(C)C)C(O)=C(C(N)=O)C(=O)[C@@]3(O)C(O)=C1C2=O [JL] |  |  | MIC (E. coli mL308 225; [3]): > 4 µg/mL; MIC (S. aureus RN450; [4]): < 4 µg/mL
32 | CN(C)c1cc(CN2CCCC2C(F)(F)F)c(O)c2c1C[C@H]1C[C@H]3[C@H](N(C)C)C(O)=C(C(N)=O)C(=O)[C@@]3(O)C(O)=C1C2=O (stereo partly drawn) | < 4 | < 4 | 
33 | CN(C)[C@@H]1C(O)=C(C(N)=O)C(=O)[C@@]2(O)C(O)=C3C(=O)c4c(O)ccc(-c5ccc(CNc6ccccc6)cc5)c4C[C@H]3C[C@@H]12 | > 4 | < 4 | 
34 | CN(C)CC(=O)Nc1ccc(C#Cc2ccc(O)c3c2C[C@H]2C[C@H]4[C@H](N(C)C)C(O)=C(C(N)=O)C(=O)[C@@]4(O)C(O)=C2C3=O)cc1 [BM] |  |  | MIC (E. coli mL308 225; [3]): < 4 µg/mL; MIC (S. aureus RN450; [4]): < 4 µg/mL
35 | COc1ccc(-c2ccc(O)c3c2C[C@H]2C[C@H]4[C@H](N(C)C)C(O)=C(C(N)=O)C(=O)[C@@]4(O)C(O)=C2C3=O)cc1CN1CCN(C)CC1 [JY] |  |  | MIC (E. coli mL308 225; [3]): > 4 µg/mL; MIC (S. aureus RN450; [4]): < 4 µg/mL
36 | CN(C)[C@@H]1C(O)=C(C(N)=O)C(=O)[C@@]2(O)C(O)=C3C(=O)c4c(ccc(N)c4O)C[C@H]3C[C@@H]12 [JU] |  |  | MIC (E. coli mL308 225; [3]): < 4 µg/mL; MIC (S. aureus RN450; [4]): < 4 µg/mL
37 | CCOP(=O)(OCC)C(Nc1ccccc1)c1ccc(-c2cc(N(C)C)c3c(c2O)C(=O)C2=C(O)[C@]4(O)C(=O)C(C(N)=O)=C(O)C(N(C)C)[C@@H]4C[C@@H]2C3)cc1 (stereo partly drawn) [DS] |  |  | MIC (E. coli mL308 225; read-out: Antibiotic Activity Gram −): > 4 µg/mL; MIC (S. aureus RN450; read-out: Antibiotic Activity Gram +): < 4 µg/mL
38 | CN(C)c1cc(CO)c(O)c2c1C[C@H]1C[C@H]3[C@H](N(C)C)C(O)=C(C(N)=O)C(=O)[C@@]3(O)C(O)=C1C2=O | > 4 | < 4 | 
39 | CN(C)c1cc(CNC(=O)CC(F)(F)F)c(O)c2c1C[C@H]1C[C@H]3[C@H](N(C)C)C(O)=C(C(N)=O)C(=O)[C@@]3(O)C(O)=C1C2=O | < 4 | < 4 | 
40 | CC(=O)Nc1ccc(-c2ccc(O)c3c2C[C@H]2C[C@H]4[C@H](N(C)C)C(O)=C(C(N)=O)C(=O)[C@@]4(O)C(O)=C2C3=O)cn1 | > 4 | < 4 | 
41 | CN(C)c1ccc(-c2cc(N)c(O)c3c2C[C@H]2C[C@H]4[C@@H](N(C)C)C(O)=C(C(N)=O)C(=O)[C@@]4(O)C(O)=C2C3=O)cc1 [ID] |  |  | MIC (E. coli mL308 225; [3]): > 4 µg/mL; MIC (S. aureus RN450; [4]): < 4 µg/mL
42 | CCOC(=O)/C=C/c1ccc2c(c1O)C(=O)C1=C(O)[C@]3(O)C(=O)C(C(N)=O)=C(O)[C@@H](N(C)C)[C@@H]3[C@@H](O)[C@@H]1C2C (stereo partly drawn) |  |  | MIC (E. coli mL308 225; MIC class, Table 3 (Continued), read-out: Gram− activity): < 4 µg/mL; MIC (S. aureus RN450; MIC class, Table 3 (Continued), read-out: Gram+ activity): < 4 µg/mL
43 | CCOP(=O)(OCC)C(Nc1ccc2c(c1O)C(=O)C1=C(O)[C@]3(O)C(=O)C(C(N)=O)=C(O)[C@@H](N(C)C)[C@@H]3[C@@H](O)[C@@H]1[C@H]2C)c1ccc(OC)cc1 (stereo partly drawn) |  |  | MIC (E. coli mL308 225; read-out: Gram− activity): > 4 µg/mL; MIC (S. aureus RN450; read-out: Gram+ activity): < 4 µg/mL
44 | CN(C)c1cc(NCc2ccc([N+](=O)[O-])cc2)c(O)c2c1C[C@H]1C[C@H]3[C@H](N(C)C)C(O)=C(C(N)=O)C(=O)[C@@]3(O)C(O)=C1C2=O | > 4 | < 4 | 
45 | C[C@H]1c2c(N)cc(I)c(O)c2C(=O)C2=C(O)[C@]3(O)C(=O)C(C(N)=O)=C(O)[C@@H](N(C)C)[C@@H]3[C@@H](O)[C@@H]21 | > 4 | > 4 | 
